Data published in PubChem BioAssay (NCI).
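Briefly, cells in 96-well plates were exposed to five compound concentrations for 48 h, and endpoints were estimated by linear interpolation. At the GI50, growth is halved. TGI: total growth inhibition.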

Legend:
Assay in all cases: growth of human tumour cells (NCI), 48 h
[1] = system: 786-0 renal
[2] = system: A549 NSCLC
[3] = system: ACHN renal
[4] = system: CAKI-1 renal
[5] = system: CCRF-CEM leukemia
[6] = system: COLO 205 colon
[7] = system: DLD-1 colon
[8] = system: DMS 114 small cell lung
[9] = system: DMS 273 small cell lung
[10] = system: EKVX NSCLC
[11] = system: HCC-2998 colon
[12] = system: HCT-116 colon
[13] = system: HCT-15 colon
[14] = system: HL-60(TB) leukemia
[15] = system: HOP-18 NSCLC
[16] = system: HOP-62 NSCLC
[17] = system: HOP-92 NSCLC
[18] = system: HT29 colon
[19] = system: IGROV1 ovarian
[20] = system: K-562 leukemia
[21] = system: KM12 colon
[22] = system: KM20L2 colon
[23] = system: LOX IMVI melanoma
[24] = system: LXFL 529 NSCLC
[25] = system: M14 melanoma
[26] = system: M19-MEL melanoma
[27] = system: MALME-3M melanoma
[28] = system: MOLT-4 leukemia
[29] = system: NCI-H226 lung
[30] = system: NCI-H23 lung
[31] = system: NCI-H460 lung
[32] = system: NCI-H522 lung
[33] = system: OVCAR-3 ovarian
[34] = system: OVCAR-5 ovarian
[35] = system: OVCAR-8 ovarian
[36] = system: RPMI-8226 leukemia
[37] = system: RXF 393 renal
[38] = system: SF-268 CNS
[39] = system: SF-295 CNS
[40] = system: SK-MEL-2 melanoma
[41] = system: SK-MEL-28 melanoma
[42] = system: SK-MEL-5 melanoma
[43] = system: SK-OV-3 ovarian
[44] = system: SNB-19 CNS
[45] = system: SNB-75 CNS
[46] = system: SNB-78 CNS
[47] = system: SR leukemia
[48] = system: SW-620 colon
[49] = system: TK-10 renal
[50] = system: U251 CNS
[51] = system: UACC-257 melanoma
[52] = system: UACC-62 melanoma
[53] = system: UO-31 renal
[54] = system: XF 498 CNS
[55] = system: A498 renal
[56] = system: OVCAR-4 ovarian
[57] = system: SF-539 CNS
[58] = system: SN12C renal

`CC(=O)CCCCCCCCCCCC[C@@H]1CC[C@H](C)[C@H](O)N1` gave a TGI [1] of over 100 µM, a TGI [2] of over 100 µM and a TGI [3] of over 100 µM. It also gave a TGI [4] of over 100 µM, a TGI [5] of over 100 µM and a TGI [6] of over 100 µM. For the same molecule, the TGI [7] was over 100 µM, the TGI [8] was over 100 µM and the TGI [9] was over 100 µM. The TGI [10] was over 100 µM, the TGI [11] was over 100 µM and the TGI [12] was over 100 µM. The TGI [13] was over 100 µM, the TGI [14] was over 100 µM and the TGI [15] was over 100 µM. It also gave a TGI [16] of over 100 µM, a TGI [17] of over 100 µM and a TGI [18] of over 100 µM. The TGI [19] was over 100 µM, the TGI [20] was over 100 µM and the TGI [21] was over 100 µM. For the same molecule, the TGI [22] was over 100 µM, the TGI [23] was over 100 µM and the TGI [24] was over 100 µM. For the same molecule, the TGI [25] was over 100 µM, the TGI [26] was over 100 µM and the TGI [27] was over 100 µM. For the same molecule, the TGI [28] was over 100 µM, the TGI [29] was over 100 µM and the TGI [30] was over 100 µM. It also gave a TGI [31] of over 100 µM, a TGI [32] of over 100 µM and a TGI [33] of over 100 µM. It also gave a TGI [34] of over 100 µM, a TGI [35] of over 100 µM and a TGI [36] of over 100 µM. It also gave a TGI [37] of over 100 µM, a TGI [38] of over 100 µM and a TGI [39] of over 100 µM. For the same molecule, the TGI [40] was over 100 µM, the TGI [41] was over 100 µM and the TGI [42] was over 100 µM. For the same molecule, the TGI [43] was over 100 µM, the TGI [44] was over 100 µM and the TGI [45] was over 100 µM. For the same molecule, the TGI [46] was over 100 µM, the TGI [47] was over 100 µM and the TGI [48] was over 100 µM. It also gave a TGI [49] of over 100 µM, a TGI [50] of over 100 µM and a TGI [51] of over 100 µM. It also gave a TGI [52] of over 100 µM, a TGI [53] of over 100 µM and a TGI [54] of over 100 µM.
Molecule `CCO[C@@H]1OC(=O)[C@](C)(C(C)=O)[C@@H]1C` has a TGI [55] of over 100 µM, a TGI [3] of over 100 µM and a TGI [5] of 89.5 µM. The TGI [6] was over 100 µM, the TGI [8] was over 100 µM and the TGI [14] was 79.6 µM. It also gave a TGI [16] of over 100 µM, a TGI [17] of over 100 µM and a TGI [18] of over 100 µM. It also gave a TGI [19] of over 100 µM, a TGI [20] of over 100 µM and a TGI [21] of over 100 µM. The TGI [22] was over 100 µM, the TGI [24] was over 100 µM and the TGI [25] was over 100 µM. For the same molecule, the TGI [26] was over 100 µM, the TGI [28] was over 100 µM and the TGI [30] was 60.1 µM. It also gave a TGI [31] of over 100 µM, a TGI [32] of over 100 µM and a TGI [33] of over 100 µM. For the same molecule, the TGI [56] was over 100 µM, the TGI [34] was over 100 µM and the TGI [36] was over 100 µM. The TGI [37] was over 100 µM, the TGI [38] was 67.8 µM and the TGI [39] was over 100 µM. For the same molecule, the TGI [57] was over 100 µM, the TGI [40] was over 100 µM and the TGI [41] was over 100 µM. The TGI [43] was over 100 µM, the TGI [44] was over 100 µM and the TGI [45] was 98.4 µM. For the same molecule, the TGI [46] was over 100 µM, the TGI [47] was over 100 µM and the TGI [50] was over 100 µM. For the same molecule, the TGI [51] was over 100 µM, the TGI [52] was over 100 µM and the TGI [53] was over 100 µM.
With `CC(CN(CP(=O)([O-])[O-])CP(=O)([O-])[O-])N(CP(=O)([O-])[O-])CP(=O)([O-])[O-].N.N.[Pt+2]` (centres undefined) the GI50 [1] was over 100 µM, the TGI [1] was over 100 µM and the GI50 [55] was over 100 µM. For the same molecule, the TGI [55] was over 100 µM, the GI50 [2] was over 100 µM and the TGI [2] was over 100 µM. The GI50 [3] was over 100 µM, the TGI [3] was over 100 µM and the GI50 [4] was over 100 µM. It also gave a TGI [4] of over 100 µM, a GI50 [5] of over 100 µM and a TGI [5] of over 100 µM. The GI50 [6] was over 100 µM, the TGI [6] was over 100 µM and the GI50 [7] was over 100 µM. The TGI [7] was over 100 µM, the GI50 [9] was over 100 µM and the TGI [9] was over 100 µM. For the same molecule, the GI50 [10] was over 100 µM, the TGI [10] was over 100 µM and the GI50 [11] was over 100 µM. The TGI [11] was over 100 µM, the GI50 [12] was over 100 µM and the TGI [12] was over 100 µM. It also gave a GI50 [13] of over 100 µM, a TGI [13] of over 100 µM and a GI50 [14] of over 100 µM. For the same molecule, the TGI [14] was over 100 µM, the GI50 [15] was 26.1 µM and the TGI [15] was over 100 µM. It also gave a GI50 [16] of over 100 µM, a TGI [16] of over 100 µM and a GI50 [18] of over 100 µM. For the same molecule, the TGI [18] was over 100 µM, the GI50 [19] was over 100 µM and the TGI [19] was over 100 µM. It also gave a GI50 [20] of over 100 µM, a TGI [20] of over 100 µM and a GI50 [21] of over 100 µM. The TGI [21] was over 100 µM, the GI50 [22] was over 100 µM and the TGI [22] was over 100 µM. The GI50 [23] was over 100 µM, the TGI [23] was over 100 µM and the GI50 [24] was over 100 µM. It also gave a TGI [24] of over 100 µM, a GI50 [25] of over 100 µM and a TGI [25] of over 100 µM. For the same molecule, the GI50 [27] was over 100 µM, the TGI [27] was over 100 µM and the GI50 [28] was over 100 µM. For the same molecule, the TGI [28] was over 100 µM, the GI50 [29] was over 100 µM and the TGI [29] was over 100 µM. For the same molecule, the GI50 [30] was over 100 µM, the TGI [30] was over 100 µM and the GI50 [31] was over 100 µM. It also gave a TGI [31] of over 100 µM, a GI50 [32] of over 100 µM and a TGI [32] of over 100 µM. For the same molecule, the GI50 [33] was over 100 µM, the TGI [33] was over 100 µM and the GI50 [56] was over 100 µM. It also gave a TGI [56] of over 100 µM, a GI50 [34] of over 100 µM and a TGI [34] of over 100 µM. The GI50 [35] was over 100 µM, the TGI [35] was over 100 µM and the GI50 [36] was over 100 µM. For the same molecule, the TGI [36] was over 100 µM, the GI50 [37] was over 100 µM and the TGI [37] was over 100 µM. For the same molecule, the GI50 [38] was over 100 µM, the TGI [38] was over 100 µM and the GI50 [39] was over 100 µM. The TGI [39] was over 100 µM, the GI50 [57] was over 100 µM and the TGI [57] was over 100 µM. The GI50 [40] was over 100 µM, the TGI [40] was over 100 µM and the GI50 [41] was over 100 µM. The TGI [41] was over 100 µM, the GI50 [42] was over 100 µM and the TGI [42] was over 100 µM. It also gave a GI50 [43] of over 100 µM, a TGI [43] of over 100 µM and a GI50 [58] of over 100 µM. For the same molecule, the TGI [58] was over 100 µM, the GI50 [44] was over 100 µM and the TGI [44] was over 100 µM. It also gave a GI50 [45] of over 100 µM, a TGI [45] of over 100 µM and a GI50 [46] of over 100 µM. It also gave a TGI [46] of over 100 µM, a GI50 [48] of over 100 µM and a TGI [48] of over 100 µM. The GI50 [49] was over 100 µM, the TGI [49] was over 100 µM and the GI50 [50] was over 100 µM. For the same molecule, the TGI [50] was over 100 µM, the GI50 [51] was over 100 µM and the TGI [51] was over 100 µM. It also gave a GI50 [52] of over 100 µM, a TGI [52] of over 100 µM and a GI50 [53] of over 100 µM. It also gave a TGI [53] of over 100 µM.
